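Results reflect a 48-hour exposure of cells in 96-well plates to compound at five concentrations. Here, GI50 denotes the concentration required for 50% inhibition of growth. The concentration for full growth arrest is given as TGI.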
Tests used:
Assay in all cases: NCI tumour cell line growth inhibition, 48 h
A498 renal = system: A498 renal
HL-60(TB) leukemia = system: HL-60(TB) leukemia
HOP-92 NSCLC = system: HOP-92 NSCLC
K-562 leukemia = system: K-562 leukemia
NCI/ADR-RES ovarian = system: NCI/ADR-RES ovarian
OVCAR-4 ovarian = system: OVCAR-4 ovarian
SF-268 CNS = system: SF-268 CNS
SK-MEL-5 melanoma = system: SK-MEL-5 melanoma
SN12C renal = system: SN12C renal
UACC-62 melanoma = system: UACC-62 melanoma

## NCCOCCOCCNc1nc(Cc2ccccc2)nc(NCCCN2CCCC2=O)n1
A498 renal
  GI50: > 100 µM
  TGI: > 100 µM
HL-60(TB) leukemia
  GI50: > 100 µM
  TGI: > 100 µM
HOP-92 NSCLC
  GI50: > 100 µM
  TGI: > 100 µM
K-562 leukemia
  GI50: > 100 µM
  TGI: > 100 µM
NCI/ADR-RES ovarian
  GI50: > 100 µM
  TGI: > 100 µM
OVCAR-4 ovarian
  GI50: > 100 µM
  TGI: > 100 µM
SF-268 CNS
  GI50: > 100 µM
  TGI: > 100 µM
SK-MEL-5 melanoma
  GI50: > 100 µM
  TGI: > 100 µM
SN12C renal
  GI50: > 100 µM
  TGI: > 100 µM
UACC-62 melanoma
  GI50: > 100 µM
  TGI: > 100 µM

## CC(C)c1cc(-c2n[nH]c(=O)n2-c2ccc3c(ccn3C)c2)c(O)cc1O
A498 renal
  GI50: 0.0534 µM
  TGI: 14 µM
HL-60(TB) leukemia
  GI50: < 0.01 µM
  TGI: 21.8 µM
HOP-92 NSCLC
  GI50: < 0.0169 µM
  TGI: 0.0484 µM
K-562 leukemia
  GI50: < 0.0123 µM
  TGI: > 100 µM
NCI/ADR-RES ovarian
  GI50: 0.0409 µM
  TGI: > 100 µM
OVCAR-4 ovarian
  GI50: 13 µM
  TGI: > 86.1 µM
SF-268 CNS
  GI50: 9.69 µM
  TGI: 38.9 µM
SK-MEL-5 melanoma
  GI50: < 0.0207 µM
  TGI: 13.9 µM
SN12C renal
  GI50: < 0.0222 µM
  TGI: > 52.2 µM
UACC-62 melanoma
  GI50: < 0.0173 µM
  TGI: 0.224 µM

## CCc1nccc2c1nc(-c1nonc1N)n2CC
A498 renal
  GI50: 7.1 µM
  TGI: > 25 µM
HL-60(TB) leukemia
  GI50: > 25 µM
  TGI: > 25 µM
HOP-92 NSCLC
  GI50: 1.39 µM
  TGI: 21.5 µM
K-562 leukemia
  GI50: > 25 µM
  TGI: > 25 µM
NCI/ADR-RES ovarian
  GI50: > 25 µM
  TGI: > 25 µM
OVCAR-4 ovarian
  GI50: > 25 µM
  TGI: > 25 µM
SF-268 CNS
  GI50: > 25 µM
  TGI: > 25 µM
SK-MEL-5 melanoma
  GI50: > 25 µM
  TGI: > 25 µM
SN12C renal
  GI50: > 25 µM
  TGI: > 25 µM
UACC-62 melanoma
  GI50: > 25 µM
  TGI: > 25 µM

## CCCCCCCCCCC(C(=O)O)C1(C(=O)O)CCC(=O)O1 (stereo not drawn)
HL-60(TB) leukemia
  TGI: > 100 µM
HOP-92 NSCLC
  TGI: > 100 µM
K-562 leukemia
  TGI: > 100 µM
NCI/ADR-RES ovarian
  TGI: > 100 µM
OVCAR-4 ovarian
  TGI: > 100 µM
SF-268 CNS
  TGI: > 100 µM
SN12C renal
  TGI: > 100 µM
UACC-62 melanoma
  TGI: > 100 µM

## CC1(C)CC(=O)c2c(C(F)(F)F)nn(-c3ccc(C(N)=O)c(NC4CCC(OC(=O)CN)CC4)c3)c2C1 (stereo not drawn)
A498 renal
  GI50: 0.303 µM
  TGI: > 100 µM
HL-60(TB) leukemia
  GI50: 0.0398 µM
  TGI: 13.2 µM
HOP-92 NSCLC
  GI50: 0.124 µM
  TGI: 1.04 µM
K-562 leukemia
  GI50: 0.036 µM
  TGI: > 79.4 µM
NCI/ADR-RES ovarian
  GI50: 12.5 µM
  TGI: > 100 µM
OVCAR-4 ovarian
  GI50: > 25.1 µM
  TGI: > 100 µM
SF-268 CNS
  GI50: 0.271 µM
  TGI: > 100 µM
SK-MEL-5 melanoma
  GI50: 0.0742 µM
  TGI: 18.3 µM
SN12C renal
  GI50: 0.0692 µM
  TGI: > 100 µM
UACC-62 melanoma
  GI50: 0.0507 µM
  TGI: 14.5 µM

## Cc1cc(N(CCCl)CCCl)ccc1C=Nc1ccc(-c2csc(Cc3ccccc3)n2)cc1
A498 renal
  GI50: 0.144 µM
  TGI: 1.13 µM
HL-60(TB) leukemia
  GI50: 1.85 µM
  TGI: > 46 µM
HOP-92 NSCLC
  GI50: 1.53 µM
  TGI: 12.3 µM
K-562 leukemia
  GI50: 9.88 µM
  TGI: > 100 µM
NCI/ADR-RES ovarian
  GI50: 5.18 µM
  TGI: 34 µM
OVCAR-4 ovarian
  GI50: 8.01 µM
  TGI: > 100 µM
SF-268 CNS
  GI50: 7.03 µM
  TGI: > 85.4 µM
SK-MEL-5 melanoma
  GI50: 7.68 µM
  TGI: 21.2 µM
SN12C renal
  GI50: 3.85 µM
  TGI: 62.8 µM
UACC-62 melanoma
  GI50: 0.621 µM
  TGI: 16 µM

From PubChem BioAssay (NCI)
